These results are taken from patent US5281616A, “Porphyrin and phthalocyanine antiviral compositions” (priority 1992, dated 1994).

“And” between values parts separate entries of the source, which are not always exact repeats. Identical values can stand only once. Counter-ions that a name gives are not always drawn. Like-named read-outs stand apart in the source and are kept apart here. Bounds are passed on as bounds.

The subject of assay [1] is herpes simplex virus type 1. Nature of the assay: Plaque assay in Vero cells, HSV type 1. It counts as cell-based, HSV-1. The method, then:
(§1) Methodology for Testing Antiviral Drugs for Inhibition of Replication of HSV-1 and HSV-2
(§2) Compounds are tested for inhibition of herpes simplex virus type 1 and herpes simplex virus type 2 using the method of Schinazi, et al., Antimicrobial Agents and Chemotherapy 22, 499-507 (1982). This is a plaque assay using Vero cells (African green monkey cells) infected with HSV.

Assay [2] concerns herpes simplex virus type 2. Nature of the assay: Plaque assay in Vero cells, HSV type 2. It counts as cell-based, HSV-2. The method, then: as §1, §2
Assay [3] concerns HIV-1 (strain LAV-1). In words: Inhibition of HIV replication in PBM cells (supernatant RT activity). It counts as cell-based.
Assay [4] addresses HIV-1 reverse transcriptase (Human immunodeficiency virus type 1 group M subtype B, UniProt P04585). Nature of the assay: Inhibition of purified HIV-1 reverse transcriptase (cell free). It counts as biochemical. The method, then: Methodology for Testing Antiviral Drugs for Inhibition of HIV-1 Reverse Transcriptase
Cells and viruses are cultured as described above. […] 12,431-439 (1973). Cocktail, template, compound to be tested and reverse transcriptase are mixed together on ice, then incubated for one hour at 37° C.. The DNA synthesized is acid precipitated and the radioactivity measured, as described by Eriksson, B., et al., Antimicrobial Agents and Chemotherapy 31, 600-604 ([…]).

Assay [5] relates to influenza A. Conditions: upon exposure to light; concentrations as low as; cited from earlier work.
The subject of assay [6] is herpes simplex viruses. Conditions: upon exposure to light; concentrations as low as; cited from earlier work.
Where [7] appears, read: Human immunodeficiency virus 1, PBMC, 120 h, read-out: EC50, inhibition of HIV replication in PBM cells, human PBM cells, RT activity in supernatant five days after infection.
[8] abbreviates: human PBM cells, RT activity in supernatant five days after infection, read-out: EC50, inhibition of HIV replication in PBM cells.
The mark [9] stands for this setting: Human immunodeficiency virus 1, PBMC, 120 h, human PBM cells, RT activity in supernatant five days after infection, read-out: EC50, inhibition of HIV replication in PBM cells.
Where [10] appears, read: Human alphaherpesvirus 1, Dark, Vero cells plaque assay, read-out: EC50 HSV type 1 Dark.
The mark [11] stands for this setting: Human alphaherpesvirus 1, Light, Vero cells plaque assay, read-out: EC50 HSV type 1 Light.
Setting [12] is: Human alphaherpesvirus 2, Dark, Vero cells plaque assay, read-out: EC50 HSV type 2 Dark.
Setting [13] is: Human alphaherpesvirus 2, Light, Vero cells plaque assay, read-out: EC50 HSV type 2 Light.
Setting [14] is: purified enzyme, one hour at 37° C., read-out: EC50, inhibition of HIV reverse transcriptase.
[15] abbreviates: read-out: EC50, inhibition of HIV reverse transcriptase, purified enzyme, one hour at 37° C.

For `C[n+]1ccc(-c2c3nc(c(-c4cc[n+](C)cc4)c4ccc([nH]4)c(-c4cc[n+](C)cc4)c4nc(c(-c5cc[n+](C)cc5)c5ccc2[nH]5)C=C4)C=C3)cc1` [TMPyP, Tetra-(N-methyl-4-pyridyl)-porphyrin tosylate salt], the EC50 in assay [1] (Human alphaherpesvirus 1, Vero, read-out: EC50 HSV type 1 Dark) was 0.04 µM; in assay [1] (Human alphaherpesvirus 1, Vero, read-out: EC50 HSV type 1 Light) it was 0.03 µM; in assay [2] (Human alphaherpesvirus 2, Vero, read-out: EC50 HSV type 2 Dark), above 10 µM; in assay [2] (Human alphaherpesvirus 2, Vero, read-out: EC50 HSV type 2 Light), above 1 µM.

For `Cl[Si]1(Cl)n2c3c4ccccc4c2N=C2N=C(N=c4c5ccccc5c(n41)=NC1=NC(=N3)c3ccccc31)c1ccccc12` [SiPHTHCl2, Silicon phthalocyanine dichloride], the 50% effective concentration (EC50) in assay [3] (setting [7]) was at most 1 µM.

As for `[Co+2].c1ccc2c(c1)-c1nc-2nc2[n-]c(nc3nc(nc4[n-]c(n1)c1ccccc41)-c1ccccc1-3)c1ccccc21` [CoPHTH, Cobalt phthalocyanine], the EC50 in assay [3] (setting [8]) worked out at 100 µM.

For the molecule `[Cu+2].c1ccc2c(c1)-c1nc-2nc2[n-]c(nc3nc(nc4[n-]c(n1)c1ccccc41)-c1ccccc1-3)c1ccccc21` [CuPHTH, Copper phthalocyanine], in assay [3] (setting [8]), the 50% effective concentration (EC50) stood at 46.9 µM.

Turning to `[Cl][Fe]1[n]2c3ccc2C(c2ccccc2)=C2C=CC(=N2)C(c2ccccc2)=c2ccc([n]21)=C(c1ccccc1)C1=NC(=C3c2ccccc2)C=C1` [FeTPPCl, Fe(III)-tetraphenylporphyrin chloride], in assay [3] (setting [8]), the EC50 is around 100 µM.

For `Clc1ccc(-c2c3nc(c(-c4ccc(Cl)cc4)c4ccc([nH]4)c(-c4ccc(Cl)cc4)c4nc(c(-c5ccc(Cl)cc5)c5ccc2[nH]5)C=C4)C=C3)cc1` [TPP(4-Cl)4, Tetra-(4-chlorophenyl)-porphyrin], in assay [3] (setting [9]), the EC50 was around 100 µM.

As to “Copper phthalocyanine tetrasulfonic acid tetra-sodium salt [CuPHTHS4]”, the EC50 in assay [3] (setting [8]) was 22.4 µM.

`C[n+]1ccc(-c2c3nc(c(-c4ccccc4)c4ccc([nH]4)c(-c4ccccc4)c4nc(c(-c5cc[n+](C)cc5)c5ccc2[nH]5)C=C4)C=C3)cc1` [CP-4, 5,10-Diphenyl-15,20-di(N-methyl-4-pyridyl)-porphyrin Cl-]: the “Difference in inhibition of HIV, dark versus light” value in assay [3] is given as “No significant differences in activity”. Also, the EC50 in assay [3] (Human immunodeficiency virus 1, PBMC, 120 h, read-out: EC50, inhibition of HIV replication in PBM cells) came out at 0.38 µM; in assay [3] (Human immunodeficiency virus 1, PBMC, read-out: EC50, inhibition of HIV replication in PBM cells), 0.43 µM; in assay [4], 26.9 µM.

Consider `C=CC1=C(C)c2cc3[nH]c(cc4nc(cc5[nH]c(cc1n2)c(C)c5C=C)C(C)=C4CCC(=O)OC)c(CCC(=O)OC)c3C` [PPIXDME, Protoporphyrin IX dimethyl ester], for which the EC50 in assay [4] was above 100 µM; in assay [1] (setting [10]), above 10 µM; in assay [1] (setting [11]), 10 µM; in assay [2] (setting [12]), above 10 µM; in assay [2] (setting [13]) it was above 10 µM.

As for “Copper-4,4',4'',4'''-tetra-aza-29H, 31H-phthalocyanine [CuPHTHN4]”, the EC50 in assay [3] (setting [8]) was 100 µM.

Regarding `Cc1ccc(-c2c3nc(c(-c4ccc(C)cc4)c4ccc([nH]4)c(-c4ccc(C)cc4)c4nc(c(-c5ccc(C)cc5)c5ccc2[nH]5)C=C4)C=C3)cc1` [TPP(4-Me)4, Tetra-(4-methylphenyl)-porphyrin], the 50% effective concentration (EC50) in assay [4] is above 100 µM; in assay [1] (setting [10]) it was above 10 µM; in assay [1] (setting [11]) it was 1 µM; in assay [2] (setting [12]), 3.95 µM; in assay [2] (setting [13]) it was above 10 µM.

Consider `Oc1ccc(-c2c3nc(c(-c4ccc(O)cc4)c4ccc([nH]4)c(-c4ccc(O)cc4)c4nc(c(-c5ccc(O)cc5)c5ccc2[nH]5)C=C4)C=C3)cc1` [TPP(4-OH)4, Tetra-(4-hydroxyphenyl)-porphyrin], for which the 50% effective concentration (EC50) in assay [3] (setting [9]) was 0.6 µM; in assay [3] (setting [8]), 0.7 µM; in assay [1] (setting [10]), above 10 µM; in assay [1] (setting [11]), above 10 µM; in assay [2] (setting [12]) it was above 10 µM; in assay [2] (setting [13]) it was above 10 µM.

For “Copper phthalocyanine 3,4'4'',4'''-tetrasulfonic acid [(CuPHTHS4)(3,4,4,4)]”, in assay [3] (setting [8]), the EC50 was at most 1 µM.

With “Fe(III)-tetra-(4-methylphenyl)-porphyrin chloride [(FeTPP)(4-Cl)4]”, the half-maximal effective concentration (EC50) in assay [3] (setting [8]) was above 100 µM.

As for `Cc1cccc(-c2c3nc(c(-c4cccc(C)c4)c4ccc([nH]4)c(-c4cccc(C)c4)c4nc(c(-c5cccc(C)c5)c5ccc2[nH]5)C=C4)C=C3)c1` [TPP(3-Me)4, Tetra-(3-methylphenyl)-porphyrin], the EC50 in assay [1] (setting [10]), in assay [1] (setting [11]) and in assay [2] (setting [13]) was above 10 µM throughout.

`CC1=C(CCC(=O)O)c2cc3[nH]c(cc4nc(cc5[nH]c(cc1n2)c(C)c5C(C)O)C(C)=C4C(C)O)c(C)c3CCC(=O)O` (centres unmarked) [hematoporphyrin]: in assay [5], the “Concentration inhibiting in vitro replication of influenza A” value is 0.5 µg/mL. Further, in assay [6], the “Concentration inhibiting in vitro replication of herpes simplex viruses” value is 0.5 µg/mL.

For the molecule `C[n+]1ccc(-c2c3nc(c(-c4ccccc4)c4ccc([nH]4)c(-c4ccccc4)c4nc(c(-c5cc[n+](C)cc5)c5ccc2[nH]5)C=C4)C=C3)cc1.[Ni+2]` [Ni-CP4, Ni(II)-5,10-diphenyl-15,20-di(N-methyl-4-pyridyl)-porphyrin], the half-maximal effective concentration (EC50) in assay [3] (setting [8]) is 3.44 µM and 6.54 µM; in assay [4] (setting [14]), 24.8 µM.

Take “Nickel phthalocyanine tetrasulfonic acid [NiPHTHS4]”: the EC50 in assay [3] (setting [8]) was determined as 1.06 µM.

`C[n+]1cccc(-c2c3nc(c(-c4ccccc4)c4ccc([nH]4)c(-c4ccccc4)c4nc(c(-c5ccc[n+](C)c5)c5ccc2[nH]5)C=C4)C=C3)c1` [CP-3, 5,10-Diphenyl-15,20-di(N-methyl-3-pyridyl)-porphyrin Cl-]: the EC50 in assay [3] (setting [9]) turned out to be 2.28 µM; in assay [4], 41.6 µM.

`C1=Cc2nc1c(-c1ccccc1)c1ccc([nH]1)c(-c1ccccc1)c1nc(c(-c3ccccc3)c3ccc([nH]3)c2-c2ccccc2)C=C1` [TPP, Meso-tetraphenylporphine]: the EC50 in assay [3] (setting [7]) was 13.7 µM; in assay [3] (read-out: EC50, inhibition of HIV replication in PBM cells, human PBM cells, RT activity in supernatant five days after infection), above 10 µM; in assay [4] it was above 100 µM; in assay [1] (setting [10]), above 10 µM; in assay [1] (setting [11]), 10 µM; in assay [2] (setting [12]), above 10 µM. Besides, the EC50 in assay [2] (setting [13]) was above 10 µM.

“Fe(III)-mu-oxo-dimer of tetraphenyl-porphyrin [μ-oxo-TPP]”: in assay [3] (setting [8]), the concentration giving a half-maximal response (EC50) is above 100 µM.

Regarding `C[n+]1ccc(-c2c3nc(c(-c4cc[n+](C)cc4)c4ccc([nH]4)c(-c4cc[n+](C)cc4)c4nc(c(-c5cc[n+](C)cc5)c5ccc2[nH]5)C=C4)C=C3)cc1.Cl.[Fe+3]` [FeTMPyP, Fe(III)-tetra-(N-methyl-4-pyridyl)-porphyrin chloride], the EC50 in assay [3] (setting [8]) was found to be 78.1 µM.

Consider `O=C(O)c1ccc(-c2c3nc(c(-c4ccc(C(=O)O)cc4)c4ccc([nH]4)c(-c4ccc(C(=O)O)cc4)c4nc(c(-c5ccc(C(=O)O)cc5)c5ccc2[nH]5)C=C4)C=C3)cc1` [TPP(4-CO2 H)4, Tetra-(4-carboxyphenyl)-porphyrin], for which the 50% effective concentration (EC50) in assay [4] was 1.1 µM; in assay [1] (setting [10]), 2.5 µM; in assay [1] (setting [11]) it was 10 µM; in assay [2] (setting [12]), above 10 µM; in assay [2] (setting [13]), above 10 µM.

For `C[n+]1cccc(-c2c3nc(c(-c4ccccc4)c4ccc([nH]4)c(-c4ccc[n+](C)c4)c4nc(c(-c5ccccc5)c5ccc2[nH]5)C=C4)C=C3)c1` [TP-4, 5,15-Diphenyl-10,20-di(N-methyl-3-pyridyl)-porphyrin Cl-], the EC50 in assay [3] (setting [9]) is below 1 µM; in assay [3] (setting [8]), 0.76 µM; in assay [4] (setting [15]), 6.9 µM.

With `C[n+]1ccc(-c2c3nc(c(-c4cc[n+](C)cc4)c4ccc([nH]4)c(-c4ccccc4)c4nc(c(-c5ccccc5)c5ccc2[nH]5)C=C4)C=C3)cc1.[Cu+2]` [Cu-CP4, Cu(II)-5,10-diphenyl-15,20-di(N-methyl-4-pyridyl)-porphyrin], the EC50 in assay [3] (setting [8]) is 4.76 µM and 5.78 µM; in assay [4] (setting [14]) it was 57.4 µM.

Take `C=CC1=C(C)c2cc3[nH]c(cc4nc(cc5[nH]c(cc1n2)c(C)c5CCC(=O)O)C(CCC(=O)O)=C4C)c(C)c3C=C` [PPIX, Protoporphyrin, disodium salt]: the concentration for a half-maximal effect (EC50) is above 100 µM in assay [4], below 0.01 µM in assay [1] (setting [11]), 10 µM in assay [2] (setting [12]) and 0.05 µM in assay [2] (setting [13]).

Reactive Blue 15: in assay [3] (setting [8]), the concentration for a half-maximal effect (EC50) is at most 1 µM.

As to `C[n+]1ccc(-c2c3nc(c(-c4ccccc4)c4ccc([nH]4)c(-c4cc[n+](C)cc4)c4nc(c(-c5ccccc5)c5ccc2[nH]5)C=C4)C=C3)cc1` [TP-3, 5,15-Diphenyl-10,20-di(N-methyl-4-pyridyl)-porphyrin Cl-], in assay [4] (setting [15]), the concentration for a half-maximal effect (EC50) was 7.3 µM.

As a reminder, the EC50 is the concentration needed to bring the measured effect to its halfway point.
